This passage reports IC50 results from PubChem BioAssay AID2250 (Sanford-Burnham Center for Chemical Genomics, 2010).

Activity calls are given as the source filed them. No rule for the calls is given here. Where only a bound is given, the exact number is not on record here.

For orientation: IC50 means the point on the concentration scale where inhibition reaches its midpoint.

The test relates to MCF-7/NOD1 cells, GM-Tri-DAP induced IL-8 secretion. Put plainly: inhibition of NOD1-driven IL-8 release, SAR follow-up, MCF-7/NOD1 cells, GM-Tri-DAP stimulus (AID 2250).

On to `Cc1ccc(S(=O)(=O)n2c(N)nc3cc(C)c(C)cc32)cc1`, for which the IC50 is > 5 µM (inactive).

On to `O=C(O)c1c(NC(=O)N2CCOCC2)sc2c1CCCC2`, for which the IC50 is > 25 µM (inactive).
